Values quoted from earlier work as cited in article PMC11187573, “Identification of SARS-CoV-2 Mpro inhibitors through deep reinforcement learning for de novo drug design and computational chemistry approaches” (RSC Medicinal Chemistry, 2024).

Test system: Mpro
Conditions: ML dataset, Origin COVID_Moonshot; ref COVID Moonshot; cited from earlier work

SMILES | IC50
O=C(Nc1cncc2ccccc12)C1(CO)CCOc2ccc(Cl)cc21 (centres unmarked) [MAT-POS-9db1e783-2] | 1.09 µM
O=C(Cc1cc(Cl)cc(OC2CCC(=O)N2)c1)Nc1cncc2ccccc12 (centres unmarked) [MAT-POS-9ff17035-1] | 85.9 µM
O=C(Cc1cc(Cl)cc(Oc2cccc(=O)[nH]2)c1)Nc1cncc2ccccc12 [MAT-POS-9ff17035-2] | 1.98 µM
O=C(Cc1cccc(Cl)c1)Nc1cncc2c1CCCN2 [MAT-POS-14ad9fe9-1] | 5.66 µM
O=C(Cc1ccc(Cl)c(Cl)c1)Nc1cncc2ccccc12 [MAT-POS-23a8a11a-1, O=C(Cc1ccc(Cl)c(Cl)c1)Nc1cncc2ccccc12, reference compound] | 0.196 µM
CNC(=O)C1(CC(=O)Nc2cncc3ccccc23)CCOc2ccc(Cl)cc21 (centres unmarked) [MAT-POS-78e1d523-2] | 30.7 µM
CC(C(N)=O)c1cc(Cl)cc(CC(=O)Nc2cncc3ccccc23)c1 (centres unmarked) [MAT-POS-281d2ee9-1] | 2.62 µM
O=C(Cc1cc(Cl)cc(-c2nnn[nH]2)c1)Nc1cncc2ccccc12 [MAT-POS-281d2ee9-3] | 21.4 µM
O=C1CC(C(=O)N2CCN(c3cccc(Cl)c3)CC2)c2ccccc2N1 (centres unmarked) [MAT-POS-450cb4f9-1] | 20.9 µM
Cc1cc(C)c(C)c(S(=O)(=O)N2CCN(C(=O)c3cc(=O)[nH]c4ccccc34)CC2)c1C [MAT-POS-916a2c5a-3] | 6.11 µM
O=C(c1cc(=O)[nH]c2ccccc12)N1CCN(c2ccccc2)CC1 [MAT-POS-916a2c5a-4, MAT-POS-916a2c5a-4, Mpro-x3303] | 19 µM
O=C(c1cc(=O)[nH]c2ccccc12)N1CCN(c2ccccc2)CC1 [MAT-POS-916a2c5a-4] | 19 µM
Cc1ccncc1NC(=O)Cc1cc(Cl)cc(NC2CCC(F)(F)C2O)c1 (centres unmarked) [MAT-POS-044491d2-2] | 24.4 µM
Cc1ccncc1NC(=O)Cc1cc(Cl)cc(NC2(C)CCC(F)(F)CC2)c1 [MAT-POS-044491d2-6] | 30.1 µM
O=C1CC(Oc2cc(Cl)cc(N(CCC3CCCCC3)C(=O)Nc3cncc4ccccc34)c2)N1 (centres unmarked) [MAT-POS-53907a1c-3, O=C(Nc1cncc2ccccc12)N(CCC1CCCCC1)c1cc(Cl)cc(OC(C2)NC2=O)c1, reference compound] | 0.84 µM
CNc1ccc(N(C(=O)Cn2nnc3ccccc32)c2cccc(Cl)c2)cc1 [MAT-POS-06036648-5] | 7.95 µM
Cc1ccncc1NC(=O)[C@H]1CCOc2ccc(Cl)cc21 [MAT-POS-b3e365b9-3] | 5.66 µM
CC(C)c1ccncc1NC(=O)Cc1cccc(Cl)c1 [MAT-POS-bb423b95-5] | 22.9 µM
N#Cc1ncn(CC(=O)Nc2ccc(Br)cc2Cl)n1 [MAT-POS-e10a589d-4] | 9.3 µM
CCCCc1nc(-c2nccn2Cc2ccoc2)c[nH]1 [MAT-POS-ea426761-53] | 14.3 µM

SMILES | IC50
O=C1CC(C(=O)Nc2cncc3ccccc23)c2cc(Cl)cc(Cl)c2N1 (centres unmarked) [MAT-POS-f39f51fd-1] | 2.74 µM
Cc1ccncc1NC(=O)Cc1cc(Cl)cc(-c2ccc(C3CC3(F)F)cc2)c1 (centres unmarked) [MAT-POS-f42f3716-1] | 5.64 µM
CCc1cc(F)ccc1-c1cc(Cl)cc(CC(=O)Nc2cnccc2C)c1 [MAT-POS-f42f3716-4] | 28.8 µM
Cc1ccncc1NC(=O)Cc1cc(Cl)cc(-c2ccc(C3(C)CCO3)cc2)c1 (centres unmarked) [MAT-POS-f42f3716-5] | 12.1 µM
Cc1ccncc1NC(=O)Cc1cc(Cl)cc(-c2cnn(C)c2C(F)F)c1 [MAT-POS-f42f3716-7] | 17.6 µM
CC(C)(C)c1ccc(N(C(=O)c2cn[nH]c2)C(C(=O)NCCc2cccc(F)c2)c2cccnc2)cc1 (centres unmarked) [MAT-POS-f2460aef-5] | 5.33 µM
CN1C(=O)CC(O)(C(=O)Nc2cncc3ccccc23)c2cc(Cl)ccc21 (centres unmarked) [MAT-POS-f9802937-2] | 20.7 µM
CN(C)C(=O)C[C@]1(C(=O)Nc2cncc3ccccc23)CCOc2ccc(Cl)cc21 [MAT-POS-f9802937-3] | 1.3 µM
CN(C)C(=O)C[C@@]1(C(=O)Nc2cncc3ccccc23)CCOc2ccc(Cl)cc21 [MAT-POS-f9802937-4] | 20.5 µM
CCOc1c(Cl)cccc1CC(=O)Nc1cncc2ccccc12 [MAT-POS-fce787c2-1] | 6.96 µM
O=C(Cc1cc(Cl)cc(Cl)c1)Nc1cncc2ccccc12 [MAT-POS-fce787c2-2] | 1.37 µM
O=C(Nc1cncc2ccccc12)C(O)c1ccc(Cl)c(Cl)c1 (centres unmarked) [MAT-POS-fce787c2-4] | 2.01 µM
O=C(Nc1cncc2ccccc12)C(CO)c1ccc(Cl)c(Cl)c1 (centres unmarked) [MAT-POS-fce787c2-11] | 19.3 µM
O=C(Cc1cc(Cl)cc(Cc2ccn[nH]2)c1)Nc1cncc2ccccc12 [PET-UNK-372a2f82-1] | 7.22 µM
O=C(Cc1cncc2ccccc12)Nc1cccc(Cl)c1 [PET-UNK-8922bd3c-1] | 6.84 µM
O=C(Cc1cc(Cl)ccc1Cl)Nc1cncc2ccccc12 [PET-UNK-dd44aeb6-2] | 1.02 µM
O=C(Cc1cc(Cl)cc(-c2nnc[nH]2)c1)Nc1cncc2ccccc12 [RAL-THA-1d44ff04-8] | 5.3 µM
O=C(Cc1ccc(Cl)cc1)Nc1cncc2ccccc12 [RAL-THA-2d450e86-2] | 23.7 µM
Cc1ccc(CC(=O)Nc2cncc3ccccc23)cc1 [RAL-THA-2d450e86-3] | 58.4 µM
COc1ccc(CC(=O)Nc2cncc3ccccc23)cc1 [RAL-THA-2d450e86-4] | 72.5 µM

SMILES | IC50
Cc1ccc(CC(=O)Nc2cncc3ccccc23)cc1Cl [RAL-THA-2d450e86-8] | 1.09 µM
O=C(Cc1ccc(Cl)c(F)c1)Nc1cncc2ccccc12 [RAL-THA-2d450e86-9] | 2.03 µM
COc1cccc(CC(=O)Nc2cncc3ccccc23)c1 [RAL-THA-2d450e86-11] | 30.5 µM
O=C(Cc1cc(F)cc(Cl)c1)Nc1cncc2ccccc12 [RAL-THA-2d450e86-14] | 0.383 µM
O=C(Cc1cccc(Cl)c1F)Nc1cncc2ccccc12 [RAL-THA-2d450e86-19] | 23.6 µM
O=C(Cc1cccc(C(F)(F)F)c1)Nc1cncc2ccccc12 [RAL-THA-2d450e86-31] | 6.94 µM
O=C(Cc1ccc(C(F)(F)F)cc1)Nc1cncc2ccccc12 [RAL-THA-2d450e86-32] | 24.8 µM
O=C(Cc1ccncc1Cl)Nc1cncc2ccccc12 [RAL-THA-2d450e86-34] | 52.6 µM
Cc1ccccc1CC(=O)Nc1cncc2ccccc12 [RAL-THA-2d450e86-38] | 29.5 µM
COc1ccccc1CC(=O)Nc1cncc2ccccc12 [RAL-THA-2d450e86-39] | 35 µM
COCCN1CCC(C(=O)Nc2cncc3ccccc23)c2cc(Cl)ccc21 (centres unmarked) [RAL-THA-4aa06b95-7] | 0.564 µM
CNC(=O)c1cc(Cl)cc(CC(=O)Nc2cnccc2C)c1 [RAL-THA-6b94ceba-7] | 47.7 µM
Cc1ccncc1NC(=O)Cc1cc(Cl)cc(CNS(C)(=O)=O)c1 [RAL-THA-6b94ceba-12] | 24.4 µM
Cc1ccncc1NC(=O)Cc1cc(Cl)cc(S(N)(=O)=O)c1 [RAL-THA-6b94ceba-13] | 13.9 µM
O=C(Nc1cncc2ccccc12)C1CCN(Cc2ccccc2)c2ccc(Cl)cc21 (centres unmarked) [RAL-THA-8416115c-1] | 1.06 µM
O=C(Nc1cncc2ccccc12)C1CCN(Cc2ccn[nH]2)c2ccc(Cl)cc21 (centres unmarked) [RAL-THA-8416115c-6] | 0.803 µM
CN(C)C(=O)CN1CCC(C(=O)Nc2cncc3ccccc23)c2cc(Cl)ccc21 (centres unmarked) [RAL-THA-8416115c-9] | 2.54 µM
CNC(=O)Nc1ccc(N(Cc2ccsc2)C(=O)Cn2nnc3ccccc32)cc1 [ROB-IMP-e811baff-1] | 8.37 µM
Cc1ccncc1NC(=O)Cc1cc(C#N)cc(OC2CC(=O)N2)c1 (centres unmarked) [TRY-UNI-2eddb1ff-6] | 10.1 µM
